In ChEMBL document CHEMBL1152880, “Synthesis and SAR studies of trisubstituted purinones as potent and selective adenosine A2A receptor antagonists” (Bioorg Med Chem Lett, 2009):

Key:
Adenosine receptor A2a = Adenosine receptor A2a (Homo sapiens, UniProt P29274); test: Displacement of [3H]SCH-58261 from human recombinant adenosine A2A receptor expressed in HEK293 cells; type: cell-based
Homo sapiens = organism: Homo sapiens; test: Selectivity ratio of Ki for human adenosine A1 receptor to Ki for human recombinant adenosine A2A receptor
Adenosine receptor A1 = biological target: T1, Adenosine receptor A1 (Homo sapiens, UniProt P30542); test: Displacement of [3H]DPCPX from human recombinant adenosine A1 receptor expressed in CHOK1 cells; type: cell-based, CHO-K1
T1 sequence (P30542 whole entry): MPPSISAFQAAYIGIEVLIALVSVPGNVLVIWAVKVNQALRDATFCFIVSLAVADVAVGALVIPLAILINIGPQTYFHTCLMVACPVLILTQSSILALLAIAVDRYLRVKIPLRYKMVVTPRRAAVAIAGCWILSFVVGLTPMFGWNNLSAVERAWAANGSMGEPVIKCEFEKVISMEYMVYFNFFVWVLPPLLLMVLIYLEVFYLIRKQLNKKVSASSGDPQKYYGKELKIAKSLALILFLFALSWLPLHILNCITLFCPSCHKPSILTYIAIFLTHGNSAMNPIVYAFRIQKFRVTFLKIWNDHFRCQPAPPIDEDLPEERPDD

Chain of Adenosine receptor A2a (P29274 whole entry): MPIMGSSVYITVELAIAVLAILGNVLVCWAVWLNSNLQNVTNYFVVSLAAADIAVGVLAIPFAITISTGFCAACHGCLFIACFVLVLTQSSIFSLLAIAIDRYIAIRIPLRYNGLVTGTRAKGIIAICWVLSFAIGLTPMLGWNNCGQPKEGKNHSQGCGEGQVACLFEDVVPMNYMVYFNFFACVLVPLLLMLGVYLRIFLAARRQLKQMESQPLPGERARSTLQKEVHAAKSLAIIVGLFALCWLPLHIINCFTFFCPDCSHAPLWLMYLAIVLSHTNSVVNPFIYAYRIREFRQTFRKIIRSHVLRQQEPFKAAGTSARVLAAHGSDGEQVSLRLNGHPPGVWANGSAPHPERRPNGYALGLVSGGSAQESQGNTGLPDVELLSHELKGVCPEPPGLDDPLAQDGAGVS

Row | SMILES | Ki (Adenosine receptor A2a) | Ratio Ki (Homo sapiens) | Ki (Adenosine receptor A1)
1 | COCCNc1ncc2c(n1)n(-c1cccc(OC)c1)c(=O)n2Cc1c(F)cccc1F | 106 nM | 14 | 1470 nM
2 | COc1ccccc1Cn1c(=O)n(-c2ccccc2)c2nc(NC3CC3)ncc21 | 409 nM | 1.1 | 447 nM
3 | COc1ccccc1Cn1c(=O)n(-c2ccccc2OC)c2nc(NC3CC3)ncc21 | 1560 nM |  | 
4 | COc1cccc(Cn2c(=O)n(Cc3ccccc3OC)c3cnc(NC4CC4)nc32)c1 | 9210 nM |  | > 10000 nM
5 | COc1cccc(-n2c(=O)n(C)c3cnc(NC4CC4)nc32)c1 | 2640 nM |  | 
6 | COc1cccc(-n2c(=O)n(-c3ccccc3OC)c3cnc(NC4CC4)nc32)c1 | 5120 nM | 0.2 | 1260 nM
7 | COc1ccccc1Cn1c(=O)n(-c2cccc(C#N)c2)c2nc(NC3CC3)ncc21 | 2590 nM | 1.3 | 3240 nM
8 | COc1cccc(-n2c(=O)n(C(C)c3ccccc3)c3cnc(NC4CC4)nc32)c1 (centres undefined) | 359 nM |  | 
9 | COc1cccc(-n2c(=O)n(Cc3c(F)cccc3F)c3cnc(NCc4ccccn4)nc32)c1 | 12 nM | 100 | 1210 nM
10 | COc1cccc(-n2c(=O)n(Cc3c(F)cccc3F)c3cnc(NC4CCCC4)nc32)c1 | 213 nM | 5 | 1060 nM
11 | COc1cccc(-n2c(=O)n(Cc3c(F)cccc3F)c3cnc(NCCN(C)C)nc32)c1 | 261 nM | 38 | 10000 nM
12 | COc1cccc(-n2c(=O)n(Cc3c(F)cccc3F)c3cnc(Nc4cccnc4)nc32)c1 | 111 nM | 17 | 1830 nM
13 | COc1ccccc1Cn1c(=O)n(-c2cccc(OC(F)(F)F)c2)c2nc(NC3CC3)ncc21 | 206 nM | 25 | 5140 nM
14 | COc1cccc(-n2c(=O)n(Cc3c(F)cccc3F)c3cnc(NCC4CC4)nc32)c1 | 499 nM | 2 | 1070 nM
15 | COc1ccccc1Cn1c(=O)n(-c2cccc(F)c2)c2nc(NC3CC3)ncc21 | 89 nM | 7 | 599 nM
16 | COc1ccccc1Cn1c(=O)n(-c2cccc(C)c2)c2nc(NC3CC3)ncc21 | 316 nM | 6 | 1850 nM
17 | COc1cccc(-n2c(=O)n(Cc3c(F)cccc3F)c3cnc(NCCN4CCOCC4)nc32)c1 | 259 nM | 33 | 8600 nM
18 | COc1cccc(-n2c(=O)n(Cc3c(F)cccc3F)c3cnc(NCCc4cccs4)nc32)c1 | 9 nM | 220 | 1970 nM

The remaining lines, values ahead:

Row | Ki (Adenosine receptor A2a) | Ratio Ki (Homo sapiens) | Ki (Adenosine receptor A1) | SMILES
19 | 76 nM | 61 | 4640 nM | COc1cc(OC)cc(-n2c(=O)n(Cc3ccccc3OC)c3cnc(NC4CC4)nc32)c1
20 | 78 nM | 23 | 1800 nM | COc1cccc(-n2c(=O)n(Cc3c(F)cccc3F)c3cnc(NCCc4ccccn4)nc32)c1
21 | 66 nM | 20 | 1300 nM | COc1cccc(-n2c(=O)n(Cc3c(F)cccc3F)c3cnc(NCc4cccnc4)nc32)c1
22 | 31 nM | 34 | 1050 nM | CCNc1ncc2c(n1)n(-c1cccc(OC)c1)c(=O)n2Cc1c(F)cccc1F
23 | 6 nM | 55 | 330 nM | COc1cccc(-n2c(=O)n(Cc3c(F)cccc3OC)c3cnc(NC4CC4)nc32)c1
24 | 60 nM | 10 | 616 nM | COc1cccc(-n2c(=O)n(Cc3c(F)cccc3F)c3cnc(NC(C)C)nc32)c1
25 | 33 nM | 6 | 201 nM | COc1cccc(-n2c(=O)n(Cc3ccccc3F)c3cnc(NC4CC4)nc32)c1
26 | 23 nM | 49 | 1110 nM | CNc1ncc2c(n1)n(-c1cccc(OC)c1)c(=O)n2Cc1c(F)cccc1F
27 | 4 nM | 59 | 236 nM | COc1cccc(-n2c(=O)n(Cc3c(F)cccc3F)c3cnc(NC4CC4)nc32)c1
28 | 24 nM | 17 | 402 nM | COc1cccc(-n2c(=O)n(Cc3ccccc3OC)c3cnc(NC4CC4)nc32)c1
29 | 50 nM | 24 | 1190 nM | COc1cccc(-n2c(=O)n(Cc3c(F)cccc3F)c3cnc(NCc4ccncc4)nc32)c1
30 | 54 nM | 10 | 564 nM | COc1cccc(-n2c(=O)n(Cc3ccccc3)c3cnc(NC4CC4)nc32)c1
31 | 86 nM | 33 | 2850 nM | COc1cccc(-n2c(=O)n(Cc3ccccc3Cl)c3cnc(NC4CC4)nc32)c1
32 | 72 nM | 42 | 2970 nM | COc1cccc(-n2c(=O)n(Cc3c(F)cccc3F)c3cnc(NCc4ccccc4)nc32)c1
